# Assays:
# [1] = target: T1, ACE2 (Homo sapiens, UniProt Q9BYF1); experiment: Directed screen of ACE2 versus a set of metalloprotease inhibitors; assay type: biochemical; details: directed screen of GlaxoSmithKline metalloprotease inhibitor set
# [2] = target: T1, ACE2; details: it has been reported; no reference given; cited from earlier work
# T1 sequence (Q9BYF1 18-805): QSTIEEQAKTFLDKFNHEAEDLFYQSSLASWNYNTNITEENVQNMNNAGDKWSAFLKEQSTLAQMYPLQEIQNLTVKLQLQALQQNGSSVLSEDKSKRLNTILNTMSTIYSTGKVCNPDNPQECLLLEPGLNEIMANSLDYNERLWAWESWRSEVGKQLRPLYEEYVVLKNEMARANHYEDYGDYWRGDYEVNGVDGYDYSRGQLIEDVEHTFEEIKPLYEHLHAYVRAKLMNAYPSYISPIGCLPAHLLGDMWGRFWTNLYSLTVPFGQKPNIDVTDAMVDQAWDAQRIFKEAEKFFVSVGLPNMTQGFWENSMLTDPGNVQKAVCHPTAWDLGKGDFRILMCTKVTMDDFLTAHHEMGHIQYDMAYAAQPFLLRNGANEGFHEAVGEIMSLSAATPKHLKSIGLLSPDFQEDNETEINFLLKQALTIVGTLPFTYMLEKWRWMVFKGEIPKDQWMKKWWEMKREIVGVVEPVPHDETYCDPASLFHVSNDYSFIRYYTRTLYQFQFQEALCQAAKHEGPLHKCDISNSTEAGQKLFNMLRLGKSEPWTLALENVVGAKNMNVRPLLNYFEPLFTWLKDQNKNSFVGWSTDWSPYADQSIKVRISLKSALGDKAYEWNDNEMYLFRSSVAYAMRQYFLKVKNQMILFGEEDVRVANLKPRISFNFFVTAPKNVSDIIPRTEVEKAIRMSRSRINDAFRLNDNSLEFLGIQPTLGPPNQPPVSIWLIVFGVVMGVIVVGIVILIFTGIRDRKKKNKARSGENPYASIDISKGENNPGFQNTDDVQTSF
activity in the ACE2 screen [1],SMILES,effect on ACE2 enzyme activity [2]
inactive,C[C@H](CS)C(=O)N1CCC[C@H]1C(=O)O [captopril],do not attenuate ACE2 enzyme activity
,NCCCC[C@H](N[C@@H](CCc1ccccc1)C(=O)O)C(=O)N1CCC[C@H]1C(=O)O [lisinopril],do not attenuate ACE2 enzyme activity
